From the supplement of paper PMC10307832

Tests used:
Test in all cases: relative viability (nuclei count vs DMSO), 5 days (fraction); higher = more cells survive
EKVX = tested on: EKVX
In short: (§1)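 One day after seeding in 1536-well plates, lung cancer cell lines were dosed by pin tool. Dosing was either single-drug or a fixed anchor-drug dose plus five library-drug doses (not always all listed) in √10 steps. After 5 days, nuclei were stained in one fix-and-stain step and counted on 4× images, and relative viability is the nuclei count of treated wells over that of vehicle wells, given as the median of duplicate plates.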

NCI-H3122 = tested on: NCI-H3122
In short: as §1

NCI-H1755 = tested on: NCI-H1755
In short: as §1

NCI-H1734 = tested on: NCI-H1734
In short: as §1

NCI-H1993 = tested on: NCI-H1993
In short: as §1

NCI-H1944 = tested on: NCI-H1944
In short: as §1

NCI-H1975 = tested on: NCI-H1975
In short: as §1

COR-L23 = tested on: COR-L23
In short: as §1

HCC-15 = tested on: HCC-15
In short: as §1

BEN = tested on: BEN
In short: as §1

HCC-827 = tested on: HCC-827
In short: as §1

COR-L 105 = tested on: COR-L 105
In short: as §1

HCC-78 = tested on: HCC-78
In short: as §1

LU99A = tested on: LU99A
In short: as §1

HARA = tested on: HARA
In short: as §1

NCI-H596 = tested on: NCI-H596
In short: as §1

201T = tested on: 201T
In short: as §1

LXF-289 = tested on: LXF-289
In short: as §1

SK-LU-1 = tested on: SK-LU-1
In short: as §1

NCI-H1703 = tested on: NCI-H1703
In short: as §1

HCC-366 = tested on: HCC-366
In short: as §1

## CCCCCCCCCCCC1=C(O)C(=O)C=C(O)C1=O [Embelin] + Cc1nc(NC(=O)N2CCC[C@H]2C(N)=O)sc1-c1ccnc(C(C)(C)C(F)(F)F)c1 [Alpelisib] (partner 2 µM)
EKVX; first compound 0.08 µM
  relative viability: 0.849
EKVX; first compound 0.8 µM
  relative viability: 0.914
EKVX; first compound 2.53 µM
  relative viability: 0.999
EKVX; first compound 8 µM
  relative viability: 0.823
NCI-H3122; first compound 0.08 µM
  relative viability: 0.746
NCI-H3122; first compound 0.8 µM
  relative viability: 0.697
NCI-H3122; first compound 2.53 µM
  relative viability: 0.728
NCI-H3122; first compound 8 µM
  relative viability: 0.737
NCI-H1755; first compound 0.08 µM
  relative viability: 0.906
NCI-H1755; first compound 0.8 µM
  relative viability: 0.966
NCI-H1755; first compound 2.53 µM
  relative viability: 0.994
NCI-H1755; first compound 8 µM
  relative viability: 0.934
NCI-H1734; first compound 0.08 µM
  relative viability: 0.758
NCI-H1734; first compound 0.8 µM
  relative viability: 0.726
NCI-H1734; first compound 2.53 µM
  relative viability: 0.745
NCI-H1734; first compound 8 µM
  relative viability: 0.741
NCI-H1993; first compound 0.08 µM
  relative viability: 0.753
NCI-H1993; first compound 0.8 µM
  relative viability: 0.755
NCI-H1993; first compound 2.53 µM
  relative viability: 0.649
NCI-H1993; first compound 8 µM
  relative viability: 0.658
NCI-H1944; first compound 0.08 µM
  relative viability: 0.818
NCI-H1944; first compound 0.8 µM
  relative viability: 0.925
NCI-H1944; first compound 2.53 µM
  relative viability: 0.875
NCI-H1944; first compound 8 µM
  relative viability: 0.828
NCI-H1975; first compound 0.08 µM
  relative viability: 0.663
NCI-H1975; first compound 0.8 µM
  relative viability: 0.674
NCI-H1975; first compound 2.53 µM
  relative viability: 0.696
NCI-H1975; first compound 8 µM
  relative viability: 0.674
COR-L23; first compound 0.08 µM
  relative viability: 0.872
COR-L23; first compound 0.8 µM
  relative viability: 1.11
COR-L23; first compound 2.53 µM
  relative viability: 0.874
COR-L23; first compound 8 µM
  relative viability: 0.777
HCC-15; first compound 0.08 µM
  relative viability: 0.882
HCC-15; first compound 0.8 µM
  relative viability: 0.864
HCC-15; first compound 2.53 µM
  relative viability: 0.957
HCC-15; first compound 8 µM
  relative viability: 0.995
BEN; first compound 0.08 µM
  relative viability: 1.09
BEN; first compound 0.8 µM
  relative viability: 1.31
BEN; first compound 2.53 µM
  relative viability: 1.3
BEN; first compound 8 µM
  relative viability: 1.01
HCC-827; first compound 0.08 µM
  relative viability: 1.03
HCC-827; first compound 0.8 µM
  relative viability: 0.929
HCC-827; first compound 2.53 µM
  relative viability: 1.07
HCC-827; first compound 8 µM
  relative viability: 0.961
COR-L 105; first compound 0.08 µM
  relative viability: 0.951
COR-L 105; first compound 0.8 µM
  relative viability: 1.15
COR-L 105; first compound 2.53 µM
  relative viability: 0.968
COR-L 105; first compound 8 µM
  relative viability: 1.31
HCC-78; first compound 0.08 µM
  relative viability: 0.329
HCC-78; first compound 0.8 µM
  relative viability: 0.392
HCC-78; first compound 2.53 µM
  relative viability: 0.388
HCC-78; first compound 8 µM
  relative viability: 0.307
LU99A; first compound 0.08 µM
  relative viability: 0.558
LU99A; first compound 0.8 µM
  relative viability: 0.533
LU99A; first compound 2.53 µM
  relative viability: 0.561
LU99A; first compound 8 µM
  relative viability: 0.496
HARA; first compound 0.08 µM
  relative viability: 0.848
HARA; first compound 0.8 µM
  relative viability: 0.887
HARA; first compound 2.53 µM
  relative viability: 0.989
HARA; first compound 8 µM
  relative viability: 0.702
NCI-H596; first compound 0.08 µM
  relative viability: 0.487
NCI-H596; first compound 0.8 µM
  relative viability: 0.522
NCI-H596; first compound 2.53 µM
  relative viability: 0.482
NCI-H596; first compound 8 µM
  relative viability: 0.581
201T; first compound 0.08 µM
  relative viability: 0.979
201T; first compound 0.8 µM
  relative viability: 1.03
201T; first compound 2.53 µM
  relative viability: 0.981
201T; first compound 8 µM
  relative viability: 0.971
LXF-289; first compound 0.08 µM
  relative viability: 1.03
LXF-289; first compound 0.8 µM
  relative viability: 1.07
LXF-289; first compound 2.53 µM
  relative viability: 1.08
LXF-289; first compound 8 µM
  relative viability: 1.13
SK-LU-1; first compound 0.08 µM
  relative viability: 1.29
SK-LU-1; first compound 0.8 µM
  relative viability: 1.31
SK-LU-1; first compound 2.53 µM
  relative viability: 1.37
SK-LU-1; first compound 8 µM
  relative viability: 0.904
NCI-H1703; first compound 0.08 µM
  relative viability: 0.428
NCI-H1703; first compound 0.8 µM
  relative viability: 0.436
NCI-H1703; first compound 2.53 µM
  relative viability: 0.309
NCI-H1703; first compound 8 µM
  relative viability: 0.238
HCC-366; first compound 0.08 µM
  relative viability: 0.411
HCC-366; first compound 0.8 µM
  relative viability: 0.418
HCC-366; first compound 2.53 µM
  relative viability: 0.412
HCC-366; first compound 8 µM
  relative viability: 0.427
